Here are results for 1 compound from US20130281638A1, “TRICYCLO COMPOUND-POLYMER CONJUGATE” (SUCAMPO AG, priority 2012, published 2013).

Data set [1] is described as follows: Incorporation of Tacrolimus into MPEG-hexPLA polymer micelles. In kind it is physicochemical. The note with it: loadings up to 300 mg Tacrolimus per gram MPEGhexPLA; aqueous micelle solution, acetone/water sonication protocol. The procedure: Objective is the evaluation of the methoxypoly(ethylene glycol)-hexyl-substituted poly(lactic acid) [MPEG-hexPLA] polymer micelles' potential to incorporate and solubilize Tacrolimus.
The incorporation studies were carried out by a standard formulation protocol. Briefly, a defined amount of Tacrolimus was dissolved in acetone and added dropwise under sonication into water, followed by evaporation of the organic solvent and equilibration of the micelle solution overnight.
As it can be seen, for loadings up to 300 mg Tacrolimus per gram MPEGhexPLA, loading efficiencies higher than 70% could be obtained by this simple procedure. FIG. 2 presents the corresponding concentrations of Tacrolimus in the aqueous solution. It has to be noted, that these solutions can be further concentrated by simple evaporation to obtain higher drug concentrations, and keeping the transparency of the solutions.

The nature of data set [2]: Storage stability of Tacrolimus MPEG-hexPLA micelle formulations at 4° C. The data set is classed as physicochemical. The following applies: stored at 4° C. An excerpt:
The non-incorporated active compound can be removed by a simple filtration.

For data set [3] the following is noted: cited from earlier work.

Take `C=CCC1/C=C(\C)CC(C)CC(OC)C2OC(O)(C(=O)C(=O)N3CCCCC3C(=O)OC(/C(C)=C/C3CCC(O)C(OC)C3)C(C)C(O)CC1=O)C(C)CC2OC` (stereo not shown) [Tacrolimus, 17-allyl-1,14-dihydroxy-12-[2-(4-hydroxy-3-methoxycyclohexyl)-1-methylvinyl]-23,25-dimethoxy-13,19,21,27-tetramethyl-11,28-dioxa-4-azatricyclo[22.3.1.0^4,9]octacos-18-ene-2,3,10,16-tetraone]: the loading efficiencies result in data set [1] is listed as “higher than 70%”. Further, in data set [2] (formulation with a target of 150 mg/g), the stability on storage result is reported as “best stable formulation”. In addition, the “stability on storage (precipitation)” value in data set [2] (higher (than 150 mg/g target) and possibly oversaturated formulations) is given as “slight drug precipitation”. Moreover, the water solubility entry in data set [3] was “poorly water-soluble”.
